For one compound, Ki and IC50 results are on record in publication PMC11872117, “Inhibitory effects of Kratom constituents, mitragynine and 7-hydroxymitragynine, on 4-methylumbelliferone glucuronidation by human UDP-glucuronosyltransferases” (Toxicology Reports, 2025).

Common to all, as to assay type: biochemical
Assay [1] has as its target T1, UGT1A9 (Homo sapiens, UniProt O60656).
T1 construct: Supersome recombinant human enzyme (Corning), microsomal preparation
T1 sequence (O60656 26-530): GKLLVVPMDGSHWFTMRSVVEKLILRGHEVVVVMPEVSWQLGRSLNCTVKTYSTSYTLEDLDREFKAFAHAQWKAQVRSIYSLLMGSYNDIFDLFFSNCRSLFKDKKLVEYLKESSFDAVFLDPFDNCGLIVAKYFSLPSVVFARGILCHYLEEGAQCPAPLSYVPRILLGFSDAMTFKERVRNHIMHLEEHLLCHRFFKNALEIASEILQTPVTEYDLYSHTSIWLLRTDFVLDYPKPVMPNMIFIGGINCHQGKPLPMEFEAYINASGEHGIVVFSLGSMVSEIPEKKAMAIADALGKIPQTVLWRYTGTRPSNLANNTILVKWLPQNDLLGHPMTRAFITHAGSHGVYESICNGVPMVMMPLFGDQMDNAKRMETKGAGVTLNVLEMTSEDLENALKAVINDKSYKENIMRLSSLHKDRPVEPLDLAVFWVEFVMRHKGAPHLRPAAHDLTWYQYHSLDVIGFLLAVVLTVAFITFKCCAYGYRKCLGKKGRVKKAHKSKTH
Nature of the assay: 4MU glucuronidation, HPLC of 4MUG, Dixon plot. From the text:
4MU glucuronidation, HPLC of 4MUG, Dixon plot on UGT1A9

In a further assay the target is T2, UGT2B7 (Homo sapiens, UniProt P16662).
T2 construct: Supersome recombinant human enzyme (Corning), microsomal preparation
T2 sequence (P16662 24-529): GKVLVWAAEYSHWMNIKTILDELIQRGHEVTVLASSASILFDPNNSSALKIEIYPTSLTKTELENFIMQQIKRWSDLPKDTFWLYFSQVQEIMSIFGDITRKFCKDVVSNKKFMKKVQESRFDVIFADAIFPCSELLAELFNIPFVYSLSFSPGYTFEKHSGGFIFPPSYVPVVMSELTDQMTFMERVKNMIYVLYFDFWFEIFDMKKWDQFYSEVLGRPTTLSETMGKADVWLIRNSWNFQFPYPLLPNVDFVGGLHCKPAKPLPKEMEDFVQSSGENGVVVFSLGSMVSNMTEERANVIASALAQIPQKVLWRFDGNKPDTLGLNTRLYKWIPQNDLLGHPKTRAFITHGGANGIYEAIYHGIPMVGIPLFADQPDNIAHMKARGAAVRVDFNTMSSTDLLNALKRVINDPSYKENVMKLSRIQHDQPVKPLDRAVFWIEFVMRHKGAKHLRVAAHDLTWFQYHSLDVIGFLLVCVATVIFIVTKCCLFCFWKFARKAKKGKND
Kind of assay: 4MU glucuronidation, HPLC of 4MUG. The source says:
4MU glucuronidation, HPLC of 4MUG on UGT2B7

The target of assay [2] is T3, UGT1A3 (Homo sapiens, UniProt P35503).
T3 construct: Supersome recombinant human enzyme (Corning), microsomal preparation
T3 sequence (P35503 29-534): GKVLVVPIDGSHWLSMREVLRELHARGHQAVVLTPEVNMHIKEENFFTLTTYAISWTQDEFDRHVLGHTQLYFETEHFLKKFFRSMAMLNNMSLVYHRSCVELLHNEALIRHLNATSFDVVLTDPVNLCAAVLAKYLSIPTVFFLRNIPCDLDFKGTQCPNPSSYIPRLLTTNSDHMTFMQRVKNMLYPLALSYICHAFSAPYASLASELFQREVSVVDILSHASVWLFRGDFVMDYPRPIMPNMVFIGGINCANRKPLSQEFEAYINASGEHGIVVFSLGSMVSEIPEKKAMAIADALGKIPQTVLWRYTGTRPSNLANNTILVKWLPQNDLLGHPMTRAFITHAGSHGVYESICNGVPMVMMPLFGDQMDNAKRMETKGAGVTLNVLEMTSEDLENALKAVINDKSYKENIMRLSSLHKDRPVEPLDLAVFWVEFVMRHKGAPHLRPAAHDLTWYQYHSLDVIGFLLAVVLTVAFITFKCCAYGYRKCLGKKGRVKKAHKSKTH
Nature of the assay: 4MU glucuronidation, HPLC of 4MUG, Dixon plot. From the text:
4MU glucuronidation, HPLC of 4MUG, Dixon plot on UGT1A3

A further assay addresses T4, UGT1A1 (Homo sapiens, UniProt P22309).
T4 construct: Supersome recombinant human enzyme (Corning), microsomal preparation
T4 sequence (P22309 26-533): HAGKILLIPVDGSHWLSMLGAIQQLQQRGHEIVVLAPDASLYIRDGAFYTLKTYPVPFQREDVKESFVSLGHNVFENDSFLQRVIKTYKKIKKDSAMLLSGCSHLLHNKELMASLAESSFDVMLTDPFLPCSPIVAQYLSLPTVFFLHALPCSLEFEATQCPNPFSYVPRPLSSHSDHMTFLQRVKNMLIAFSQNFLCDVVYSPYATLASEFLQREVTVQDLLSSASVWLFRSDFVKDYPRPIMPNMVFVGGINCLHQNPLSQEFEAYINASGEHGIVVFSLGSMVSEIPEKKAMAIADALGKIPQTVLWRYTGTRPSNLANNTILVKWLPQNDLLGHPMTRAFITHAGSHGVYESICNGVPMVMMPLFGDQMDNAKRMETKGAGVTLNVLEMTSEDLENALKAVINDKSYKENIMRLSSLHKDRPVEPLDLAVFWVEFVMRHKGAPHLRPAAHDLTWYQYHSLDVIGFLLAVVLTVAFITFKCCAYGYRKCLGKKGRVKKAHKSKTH
Nature of the assay: 4MU glucuronidation, HPLC of 4MUG. The source says:
4MU glucuronidation, HPLC of 4MUG on UGT1A1

Assay [3] addresses T3, UGT1A3. Kind of assay: 4MU glucuronidation, HPLC of 4MUG. The source says: 4MU glucuronidation, HPLC of 4MUG on UGT1A3
In assay [4] the target is T1, UGT1A9. Kind of assay: 4MU glucuronidation, HPLC of 4MUG. The source says: 4MU glucuronidation, HPLC of 4MUG on UGT1A9
In another assay the target is T5, UGT1A6 (Homo sapiens, UniProt P19224).
T5 construct: Supersome recombinant human enzyme (Corning), microsomal preparation
T5 sequence (P19224 27-532): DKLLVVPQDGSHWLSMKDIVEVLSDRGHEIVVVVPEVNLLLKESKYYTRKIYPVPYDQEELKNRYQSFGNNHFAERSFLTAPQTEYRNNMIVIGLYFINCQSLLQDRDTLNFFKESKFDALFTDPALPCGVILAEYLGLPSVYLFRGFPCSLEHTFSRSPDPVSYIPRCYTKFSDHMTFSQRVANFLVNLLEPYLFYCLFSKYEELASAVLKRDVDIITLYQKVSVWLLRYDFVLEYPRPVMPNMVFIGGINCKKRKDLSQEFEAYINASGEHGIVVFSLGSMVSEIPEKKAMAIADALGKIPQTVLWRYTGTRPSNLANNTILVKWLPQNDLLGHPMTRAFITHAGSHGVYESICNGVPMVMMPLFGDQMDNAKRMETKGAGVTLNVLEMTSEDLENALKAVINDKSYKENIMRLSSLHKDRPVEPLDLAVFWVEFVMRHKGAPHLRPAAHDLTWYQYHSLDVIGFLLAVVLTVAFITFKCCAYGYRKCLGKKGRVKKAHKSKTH
Nature of the assay: 4MU glucuronidation, HPLC of 4MUG. The source says:
4MU glucuronidation, HPLC of 4MUG on UGT1A6

In the next assay the target is T6, UGT2B15 (Homo sapiens, UniProt P54855).
T6 construct: Supersome recombinant human enzyme (Corning), microsomal preparation
T6 sequence (P54855 24-530): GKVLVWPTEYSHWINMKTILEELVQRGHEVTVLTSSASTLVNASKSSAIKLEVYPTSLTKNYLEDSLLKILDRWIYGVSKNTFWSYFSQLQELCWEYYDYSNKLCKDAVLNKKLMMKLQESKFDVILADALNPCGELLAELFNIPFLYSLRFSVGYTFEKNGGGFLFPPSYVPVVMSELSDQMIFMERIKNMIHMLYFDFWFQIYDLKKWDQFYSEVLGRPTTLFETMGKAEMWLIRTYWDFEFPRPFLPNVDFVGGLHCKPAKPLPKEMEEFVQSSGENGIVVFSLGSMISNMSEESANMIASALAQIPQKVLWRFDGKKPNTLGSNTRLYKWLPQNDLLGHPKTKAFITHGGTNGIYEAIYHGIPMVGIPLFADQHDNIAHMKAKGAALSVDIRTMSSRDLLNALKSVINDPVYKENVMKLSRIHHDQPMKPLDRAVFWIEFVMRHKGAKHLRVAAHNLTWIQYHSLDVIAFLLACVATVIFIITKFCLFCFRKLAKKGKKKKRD
Nature of the assay: 4MU glucuronidation, HPLC of 4MUG. The source says: 4MU glucuronidation, HPLC of 4MUG on UGT2B15

Consider `CC[C@@H]1CN2CCc3c([nH]c4cccc(OC)c34)[C@@H]2C[C@@H]1/C(=C\OC)C(=O)OC` [mitragynine], for which the Ki was 114 ± 13 µM at UGT1A9 [1] and 45 ± 1.3 µM on UGT1A3 [2]. Also, the 50% inhibitory concentration (IC50) against UGT2B7 is more than 200 µM; on UGT1A1 it was more than 200 µM; at UGT1A3 [3] it was 72 ± 0.16 µM; at UGT1A9 [4], 131 ± 11 µM; against UGT1A6, 121 ± 44 µM; against UGT2B15 it was 152 ± 24 µM.

One may read the Ki as a measure of affinity in units of concentration, obtained from inhibition or displacement. Read a high Ki as weaker binding. The term IC50 denotes the point on the concentration scale where inhibition reaches its midpoint. Lower therefore signals greater potency in that assay.
